Numbered stars: 1 amine (or outer) side, 2 acyl side, 3 side chain; on linkers, the order of the positions; unused ones are H or OH. Peptide text beside a SMILES is read from it. * marks the point of attachment. C20 diacid = O=C(O)CCCCCCCCCCCCCCCCCCC(=O)*; C18 diacid = O=C(O)CCCCCCCCCCCCCCCCC(=O)*; γGlu = O=C(O)[C@H](CCC(=O)[*:2])N[*:1]
Experiments:
[1] = test system: Rattus norvegicus; test: Reduction in food intake in Sprague-Dawley rat at 3 nmol/kg measured 0 to 24 hrs post dose relative to control; assay type: functional; design: scale not given: the % may be the effect or the level left
[2] = test system: Rattus norvegicus; test: Reduction in food intake in Sprague-Dawley rat at 3 nmol/kg measured 24 to 48 hrs post dose relative to control; assay type: functional; design: scale not given: the % may be the effect or the level left
[3] = biological target: T1, Amylin receptor AMY3; CALCR/RAMP3 (Homo sapiens, UniProt O60896+P30988); test: Agonist activity at human amylin receptor expressed in BHK570 cells co-expressing RAMP3 assessed as increase in intracellular cAMP concentration incubated for 3 hrs in absence of albumin by CRE luciferase reporter gene assay; assay type: functional, cell-based
T1 sequence (P30988 whole entry): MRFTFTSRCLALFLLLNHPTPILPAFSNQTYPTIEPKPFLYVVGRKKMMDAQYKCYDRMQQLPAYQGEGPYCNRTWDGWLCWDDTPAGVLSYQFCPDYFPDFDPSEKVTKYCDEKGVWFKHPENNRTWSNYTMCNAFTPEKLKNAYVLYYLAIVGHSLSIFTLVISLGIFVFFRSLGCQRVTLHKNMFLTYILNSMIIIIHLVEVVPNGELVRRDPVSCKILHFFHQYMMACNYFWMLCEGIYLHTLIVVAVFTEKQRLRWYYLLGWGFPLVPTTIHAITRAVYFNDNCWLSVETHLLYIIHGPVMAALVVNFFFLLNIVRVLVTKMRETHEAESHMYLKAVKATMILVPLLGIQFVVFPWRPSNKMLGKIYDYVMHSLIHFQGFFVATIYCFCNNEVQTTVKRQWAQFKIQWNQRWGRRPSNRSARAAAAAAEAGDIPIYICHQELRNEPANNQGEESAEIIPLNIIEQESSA
T1 sequence (O60896 whole entry): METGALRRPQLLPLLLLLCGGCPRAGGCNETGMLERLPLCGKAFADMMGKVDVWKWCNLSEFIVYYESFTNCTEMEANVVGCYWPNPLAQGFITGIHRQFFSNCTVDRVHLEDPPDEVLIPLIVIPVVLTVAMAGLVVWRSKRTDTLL

[4] = biological target: T2, Calcitonin receptor (Homo sapiens, UniProt P30988); test: Agonist activity at human calcitonin receptor expressed in BHK570 cells assessed as increase in intracellular cAMP concentration incubated for 3 hrs in absence of albumin by CRE luciferase reporter gene assay; assay type: functional, cell-based
T2 sequence (P30988 whole entry): T1 sequence (P30988 whole entry)

[5] = Solubility in 100 mM glycylglycine buffer at pH 3.0 incubated for 18 hrs by UPLC analysis; assay type: physicochemical
[6] = Solubility in 100 mM glycylglycine buffer at pH 4.0 incubated for 18 hrs by UPLC analysis; assay type: physicochemical
[7] = Solubility in 100 mM bistrispropane buffer at pH 6.0 incubated for 18 hrs by UPLC analysis; assay type: physicochemical
[8] = Solubility in 100 mM glycylglycine buffer at pH 5.0 incubated for 18 hrs by UPLC analysis; assay type: physicochemical
[9] = Solubility in 100 mM bistrispropane buffer at pH 6.5 incubated for 18 hrs by UPLC analysis; assay type: physicochemical
[10] = Solubility in 100 mM bistrispropane buffer at pH 7.0 incubated for 18 hrs by UPLC analysis; assay type: physicochemical
[11] = Solubility in 100 mM bistrispropane buffer at pH 7.5 incubated for 18 hrs by UPLC analysis; assay type: physicochemical
[12] = Solubility in 100 mM bistrispropane buffer at pH 8.0 incubated for 18 hrs by UPLC analysis; assay type: physicochemical
[13] = biological target: T1, Amylin receptor AMY3; CALCR/RAMP3; test: Displacement of [125I]-labeled rat amylin from human amylin receptor expressed in BHK tkts13 whole cells co-expressing RAMP3 incubated for 60 mins by scintillation proximity assay; assay type: cell-based
[14] = biological target: T1, Amylin receptor AMY3; CALCR/RAMP3; test: Agonist activity at human amylin receptor expressed in BHK570 cells co-expressing RAMP3 assessed as increase in intracellular cAMP concentration incubated for 3 hrs in presence of 10% FBS by CRE luciferase reporter gene assay; assay type: functional, cell-based
[15] = biological target: T2, Calcitonin receptor; test: Agonist activity at human calcitonin receptor expressed in BHK570 cells assessed as increase in intracellular cAMP concentration incubated for 3 hrs in presence of 10% FBS by CRE luciferase reporter gene assay; assay type: functional, cell-based

| Compound | Activity [1] [%] | Activity [2] [%] | EC50 [3] [nM] | EC50 [4] [nM] | solubility at 18 h [5] [µM] | solubility at 18 h [6] [µM] | solubility at 18 h [7] [µM] | solubility at 18 h [8] [µM] | solubility at 18 h [9] [µM] | solubility at 18 h [10] [µM] | solubility at 18 h [11] [µM] | solubility at 18 h [12] [µM] | IC50 [13] [nM] | EC50 [14] [nM] | EC50 [15] [nM] |
| --- | --- | --- | --- | --- | --- | --- | --- | --- | --- | --- | --- | --- | --- | --- | --- |
| CC(C)C[C@H](NC(=O)[C@H](C)NC(=O)[C@H](C)NC(=O)[C@@H](NC(=O)[C@H](CO)NC(=O)[C@H](CC(C)C)NC(=O)[C@H](CCC(=O)O)NC(=O)[C@H](CO)NC(=O)[C@H](C)NC(=O)[C@H](CCC(=O)O)NC(=O)CCCCCCCCCCCCCCCCC(=O)O)[C@@H](C)O)C(=O)NCC(=O)N[C@@H](CCCNC(=N)N)C(=O)N[C@@H](CC(C)C)C(=O)N[C@@H](CO)C(=O)N[C@@H](C)C(=O)N[C@@H](CCC(=O)O)C(=O)N[C@@H](CC(C)C)C(=O)N[C@@H](C)C(=O)N[C@@H](CCC(=O)O)C(=O)N[C@@H](CC(C)C)C(=O)N[C@@H](C)C(=O)N[C@H](C(=O)N[C@@H](CC(C)C)C(=O)N1CCC[C@H]1C(=O)N[C@@H](CCCNC(=N)N)C(=O)N[C@H](C(=O)N[C@@H](CCC(=O)O)C(=O)N[C@H](C(=O)NCC(=O)N1CCC[C@H]1C(=O)N[C@@H](CCC(=O)O)C(=O)N[C@@H](CO)C(=O)N1CCC[C@H]1C(N)=O)[C@@H](C)O)[C@@H](C)O)[C@@H](C)O ({C18 diacid}-EASELSTAALGRLSAELAELATLPRTETGPESP-NH2) | 70 | 18 | 0.004 | 0.003 | ≥ 200 | ≥ 200 | ≥ 200 | ≥ 200 | ≥ 200 | ≥ 200 | ≥ 200 | ≥ 200 | 0.329 |  |  |
| CC(C)C[C@H](NC(=O)[C@H](CCC(=O)O)NC(=O)[C@H](Cc1cnc[nH]1)NC(=O)[C@H](CC(C)C)NC(=O)[C@H](CCC(=O)O)NC(=O)[C@H](C)NC(=O)[C@H](CO)NC(=O)[C@H](CC(C)C)NC(=O)[C@H](CCCNC(=N)N)NC(=O)CNC(=O)[C@H](CC(C)C)NC(=O)[C@@H](NC(=O)[C@H](C)NC(=O)[C@@H](NC(=O)[C@H](CO)NC(=O)[C@H](CC(C)C)NC(=O)[C@H](CCC(=O)O)NC(=O)[C@H](CO)NC(=O)[C@H](C)NC(=O)[C@H](CCC(=O)O)NC(=O)CCCCCCCCCCCCCCCCC(=O)O)[C@@H](C)O)C(C)C)C(=O)N[C@@H](C)C(=O)N[C@H](C(=O)N[C@@H](CC(C)C)C(=O)N1CCC[C@H]1C(=O)N1CCC[C@H]1C(=O)N[C@H](C(=O)N[C@@H](CCC(=O)O)C(=O)N[C@H](C(=O)NCC(=O)N1CCC[C@H]1C(=O)N[C@@H](CCC(=O)O)C(=O)N[C@@H](CO)C(=O)N1CCC[C@H]1C(N)=O)[C@@H](C)O)[C@@H](C)O)[C@@H](C)O ({C18 diacid}-EASELSTAVLGRLSAELHELATLPPTETGPESP-NH2) | 62 | 12 | 0.014 | 0.006 | ≥ 200 | ≥ 200 | ≥ 200 | ≥ 200 | ≥ 200 | ≥ 200 | ≥ 200 | ≥ 200 | 0.383 |  |  |
| CC(C)C[C@H](NC(=O)[C@H](CCC(=O)O)NC(=O)[C@H](Cc1cnc[nH]1)NC(=O)[C@H](CC(C)C)NC(=O)[C@H](CCC(=O)O)NC(=O)[C@H](C)NC(=O)[C@H](CO)NC(=O)[C@H](CC(C)C)NC(=O)[C@H](CCCNC(=N)N)NC(=O)CNC(=O)[C@H](CC(C)C)NC(=O)[C@@H](NC(=O)[C@H](C)NC(=O)[C@@H](NC(=O)[C@H](CO)NC(=O)[C@H](CC(C)C)NC(=O)[C@H](CCC(=O)O)NC(=O)[C@H](CO)NC(=O)[C@H](C)NC(=O)[C@H](CCC(=O)O)NC(=O)CCCCCCCCCCCCCCCCC(=O)O)[C@@H](C)O)C(C)C)C(=O)N[C@@H](C)C(=O)N[C@H](C(=O)N[C@@H](CC(C)C)C(=O)N1CCC[C@H]1C(=O)N[C@@H](CCCNC(=N)N)C(=O)N[C@H](C(=O)N[C@@H](CCC(=O)O)C(=O)N[C@H](C(=O)NCC(=O)N1CCC[C@H]1C(=O)N[C@@H](CCC(=O)O)C(=O)N[C@@H](CO)C(=O)N1CCC[C@H]1C(N)=O)[C@@H](C)O)[C@@H](C)O)[C@@H](C)O ({C18 diacid}-EASELSTAVLGRLSAELHELATLPRTETGPESP-NH2) | 58.5 | 39 | 0.012 | 0.009 | ≥ 200 | ≥ 200 | ≥ 200 | ≥ 200 | ≥ 200 | ≥ 200 | ≥ 200 | ≥ 200 | 0.796 |  |  |
| CC(C)C[C@H](NC(=O)[C@H](CCC(=O)O)NC(=O)[C@H](Cc1cnc[nH]1)NC(=O)[C@H](CC(C)C)NC(=O)[C@H](CCC(=O)O)NC(=O)[C@H](C)NC(=O)[C@H](CO)NC(=O)[C@H](CC(C)C)NC(=O)[C@H](CCCNC(=N)N)NC(=O)CNC(=O)[C@H](CC(C)C)NC(=O)[C@@H](NC(=O)[C@H](C)NC(=O)[C@@H](NC(=O)[C@H](CO)NC(=O)[C@H](CC(C)C)NC(=O)[C@H](CCC(=O)O)NC(=O)[C@H](CO)NC(=O)[C@@H]1CCCN1C(=O)[C@H](CCC(=O)O)NC(=O)CCCCCCCCCCCCCCCCC(=O)O)[C@@H](C)O)C(C)C)C(=O)N[C@@H](C)C(=O)N[C@H](C(=O)N[C@@H](CC(C)C)C(=O)N1CCC[C@H]1C(=O)N[C@@H](CCCNC(=N)N)C(=O)N[C@H](C(=O)N[C@@H](CCC(=O)O)C(=O)N[C@H](C(=O)NCC(=O)N1CCC[C@H]1C(=O)N[C@@H](CCC(=O)O)C(=O)N[C@@H](CO)C(=O)N1CCC[C@H]1C(N)=O)[C@@H](C)O)[C@@H](C)O)[C@@H](C)O ({C18 diacid}-EPSELSTAVLGRLSAELHELATLPRTETGPESP-NH2) | 84 | 77 | 0.008 | 0.007 | ≥ 200 | ≥ 200 | ≥ 200 | ≥ 200 | ≥ 200 | ≥ 200 | ≥ 200 | ≥ 200 | 0.375 |  |  |
| CC(C)C[C@H](NC(=O)CNC(=O)[C@H](CO)NC(=O)[C@H](C)NC(=O)CC[C@H](NC(=O)CCCCCCCCCCCCCCCCCCC(=O)O)C(=O)O)C(=O)N[C@@H](CO)C(=O)N[C@H](C(=O)N[C@@H](C)C(=O)N[C@@H](C)C(=O)N[C@@H](CC(C)C)C(=O)NCC(=O)N[C@@H](CCCNC(=N)N)C(=O)N[C@@H](CC(C)C)C(=O)N[C@@H](CO)C(=O)N[C@@H](CCC(=O)O)C(=O)N[C@@H](CCC(=O)O)C(=O)N[C@@H](CC(C)C)C(=O)N[C@@H](Cc1cnc[nH]1)C(=O)N[C@@H](CCC(=O)O)C(=O)N[C@@H](CC(C)C)C(=O)N[C@@H](CCC(N)=O)C(=O)N[C@H](C(=O)N[C@@H](Cc1ccc(O)cc1)C(=O)N1CCC[C@H]1C(=O)N[C@@H](CCCNC(=N)N)C(=O)N[C@H](C(=O)N[C@@H](CCC(=O)O)C(=O)N[C@H](C(=O)NCC(=O)N[C@@H](CO)C(=O)NCC(=O)N[C@H](C(=O)N[C@@H](Cc1ccc(O)cc1)C(N)=O)[C@@H](C)O)[C@@H](C)O)[C@@H](C)O)[C@@H](C)O)[C@@H](C)O ({C20 diacid-γGlu}-ASGLSTAALGRLSEELHELQTYPRTETGSGTY-NH2) | 21 | 6 | 0.036 | 0.021 | ≥ 200 |  | ≥ 200 |  | ≥ 200 | ≥ 200 | ≥ 200 | ≥ 200 |  | 0.159 | 0.057 |
